Assay results from ChEMBL document CHEMBL1147822, “One-pot synthesis and SAR study of cis-2,6-dialkyl-4-chloro-tetrahydropyrans” (2006).

Experiments:
Assay type in all cases: functional
WiDr = experiment: Antiproliferative activity against human WiDr cells
A2780 = experiment: Antiproliferative activity against human A2780 cells; conditions: for CC50: read-out: LC50 (the source's name)
SW1573 = experiment: Antiproliferative activity against human SW1573 cells; conditions: for CC50: read-out: LC50 (the source's name)

| GI50 (A2780) [µM] | GI50 (SW1573) [µM] | Compound | GI50 (WiDr) [µM] | LC50 (lethal concentration, 50% net cell kill) (WiDr) [µM] | TGI (WiDr) [µM] | TGI (A2780) [µM] | CC50 (A2780) [µM] | TGI (SW1573) [µM] | CC50 (SW1573) [µM] |
| --- | --- | --- | --- | --- | --- | --- | --- | --- | --- |
| > 100 | > 100 | O=[N+]([O-])c1ccc([C@H]2C[C@@H](Cl)CCO2)cc1 | > 100 |  |  |  |  |  |  |
| > 100 | > 100 | CC(C)C[C@H]1C[C@@H](Cl)C[C@@H](C)O1 | > 100 |  |  |  |  |  |  |
| 63 | 67 | CC(C)C[C@@H]1C[C@H](Cl)C[C@H](CC(C)C)O1 | > 100 |  |  | 90 |  | 89 |  |
| > 100 | > 100 | Cl[C@H]1CCO[C@@H](c2ccccc2)C1 | > 100 |  |  |  |  |  |  |
| > 100 | > 100 | CC(C)C[C@H]1C[C@@H](Cl)CCO1 | > 100 |  |  |  |  |  |  |
| 21 | 30 | CC(C)C[C@H]1C[C@@H](Cl)C[C@@H](c2ccc([N+](=O)[O-])cc2)O1 | 38 |  |  | 64 |  |  |  |

| Compound | GI50 (A2780) [µM] | GI50 (SW1573) [µM] | GI50 (WiDr) [µM] | LC50 (lethal concentration, 50% net cell kill) (WiDr) [µM] | TGI (WiDr) [µM] | TGI (A2780) [µM] | CC50 (A2780) [µM] | TGI (SW1573) [µM] | CC50 (SW1573) [µM] |
| --- | --- | --- | --- | --- | --- | --- | --- | --- | --- |
| COc1ccc([C@@H]2C[C@H](Cl)C[C@H](CC(C)C)O2)cc1 | 25 | 30 | 36 | 95 | 73 | 57 | 95 | 80 |  |
| CC(C)C[C@H]1C[C@@H](Cl)C[C@@H](C2CCCCC2)O1 | 20 | 22 | 26 |  | 63 | 38 | 73 | 43 | 82 |
| CC(C)C[C@H]1C[C@@H](Cl)C[C@@H](c2ccccc2)O1 | 17 | 24 | 39 |  | 88 | 35 | 72 | 48 | 90 |
